{"source": "patent US9539243B2", "about": "“Triazole compounds that modulate HSP90 activity” (Synta Pharmaceuticals Corp., priority 2008, dated 2017)", "tested_on": "Her2", "experiment": "Her2 degradation in BT-474 cells by Western blot (Method 1)", "assay_type": "cell-based, Human", "settings": "0.5 μM, overnight", "protocol": "Human high-Her2 breast carcinoma BT474 (HTB-20), SK-BR-3 (HTB-30) and MCF-7 breast carcinoma (HTB-22) from American Type Culture Collection, Va., USA were grown in Dulbecco's modified Eagle's medium with 4 mM L-glutamine and antibiotics (100 IU/ml penicillin and 100 μg/ml streptomycine; GibcoBRL). To obtain exponential cell growth, cells were trypsinized, counted and seeded at a cell density of 0.5×10^6 cells/ml regularly, every 3 days. All experiments were performed on day 1 after cell passage.\nBT-474 cells are treated with 0.5 μM, 2 μM, or 5 μM of 17AAG (a positive control) or 0.5 μM, 2 μM, or 5 μM of a compound of the invention overnight in DMEM medium. After treatment, each cytoplasmic sample is prepared from 1×10^6 cells by incubation of cell lysis buffer (#9803, Cell Signaling Technology) on ice for 10 minutes. The resulting supernatant used as the cytosol fractions is dissolved with sample buffer for SDS-PAGE and run on a SDS-PAGE gel, blotted onto a nitrocellulose membrane by using semi-dry transfer. Non-specific binding to nitrocellulose is blocked with 5% skim milk in TBS with 0.5% Tween at room temperature for 1 hour, then probed with anti-Her2/ErB2 mAb (rabbit IgG, #2242, Cell Signaling) and anti-Tubulin (T9026, Sigma) as housekeeping control protein. […]"}
{"smiles": "C=CCNC1=C2C[C@@H](C)C[C@H](OC)[C@H](O)[C@@H](C)/C=C(\\C)[C@H](OC(N)=O)[C@@H](OC)/C=C\\C=C(/C)C(=O)NC(=CC1=O)C2=O", "note": "[Compound 17AAG, 17-allylamino-17-demethoxygeldanamycin]", "values": [{"measurement": "degradation of Her2", "value": "partial degradation of Her2"}]}
